How the values were obtained:
[1] = molecular target: T1, human GC-A (Homo sapiens, UniProt P16066); assay: cGMP generation in HEK293 cells transfected with human GC-A receptor; type: cell-based; conditions: vs vehicle; for cGMP generation: HEK293 cells overexpressing human GC-A, 10^-8, 10^-7, 10^-6 M, 10 minutes
T1 construct: host or cells: HEK293
T1 sequence (P16066 33-1061): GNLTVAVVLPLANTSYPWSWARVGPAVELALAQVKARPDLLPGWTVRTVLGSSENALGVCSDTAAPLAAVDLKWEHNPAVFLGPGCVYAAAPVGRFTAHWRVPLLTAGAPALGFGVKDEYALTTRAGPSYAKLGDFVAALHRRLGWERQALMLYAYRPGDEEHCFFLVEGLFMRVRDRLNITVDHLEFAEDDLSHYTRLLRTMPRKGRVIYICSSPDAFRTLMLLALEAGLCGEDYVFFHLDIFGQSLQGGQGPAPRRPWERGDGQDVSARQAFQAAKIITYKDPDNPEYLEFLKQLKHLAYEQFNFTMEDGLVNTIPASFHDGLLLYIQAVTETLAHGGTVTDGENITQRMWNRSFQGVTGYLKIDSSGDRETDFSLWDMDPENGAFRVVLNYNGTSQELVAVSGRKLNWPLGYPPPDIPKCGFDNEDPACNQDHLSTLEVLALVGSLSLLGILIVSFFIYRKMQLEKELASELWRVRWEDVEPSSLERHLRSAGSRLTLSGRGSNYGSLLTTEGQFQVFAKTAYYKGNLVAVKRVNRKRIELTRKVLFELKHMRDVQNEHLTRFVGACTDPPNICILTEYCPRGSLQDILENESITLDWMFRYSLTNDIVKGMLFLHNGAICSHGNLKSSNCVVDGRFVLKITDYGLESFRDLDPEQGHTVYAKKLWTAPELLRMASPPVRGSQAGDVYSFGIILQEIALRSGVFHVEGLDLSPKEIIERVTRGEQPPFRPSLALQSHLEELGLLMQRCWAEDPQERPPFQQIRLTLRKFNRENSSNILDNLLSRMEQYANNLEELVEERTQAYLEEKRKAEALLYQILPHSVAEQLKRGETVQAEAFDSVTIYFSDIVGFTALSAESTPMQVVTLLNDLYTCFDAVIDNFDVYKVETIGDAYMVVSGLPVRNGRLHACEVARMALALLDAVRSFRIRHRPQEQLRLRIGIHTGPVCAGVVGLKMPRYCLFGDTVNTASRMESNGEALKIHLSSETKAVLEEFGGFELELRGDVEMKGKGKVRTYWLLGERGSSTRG
Text: (§1) cGMP Generation in HEK293 Cells Transfected with Human GC-B or GC-A Receptor In Vitro: HEK293 cells were stably transfected with either human GC-B or GC-A (cDNA clones from Origene, Rockville, MD) using LIPOFECTAMINE® (Invitrogen, Grand Island, NY). Receptors overexpression was verified with immunofluorescence and western blotting. GC-B/-A transfected HEK293 cells were maintained in Dulbecco's modified Eagle's medium supplemented with 10% fetal bovine serum, 100 U/mL penicillin, 100 U/mL streptomycin, and 250 μg/mL G418. Cells were seeded in 48-well plates and cultured overnight to reach 80-90% confluency. The treatment buffer that includes, Hank's Balanced Salt Solution (HBSS) including 0.1% BSA, 2 mM HEPES and 0.5 mM 3-isobutyl-1-methylzanthine (IBMX—a non-specific phosphodiesterase inhibitor, Sigma, St. Louis, MO), was used in all experiments. HEK293 cells received treatment buffer (vehicle) only was used as a negative control and ANP (10^−8M) was used as a positive control in HEK293 GC-A cells and CNP (10^−8 M) was used as a positive control in HEK293 GC-B cells. Concentrations of CD-NP, CRRL-404, CRRL-405, CRRL-407 or CRRL=408 (10^−8, 10^−7, and 10^−6 M) in HBSS were incubated with HEK293 transfected GC-B or GC-A cells for 10 minutes. After treatment, all cells were washed with phosphate buffered solution (PBS) once and lysed with 0.1M HCl. Intracellular cGMP was measured in the lysate using a commercial cGMP ELISA kit (Enzo Life Sciences, Farmingdale, NY) as instructed by the manufacturer.
(§2) cGMP Assay: The ELISA plate was coated in neutralizing solution (50 μL), prior to addition of samples and standards. Cell lysates (100 μL) and standards (100 μL), in 0.1M HCL, were incubated with cGMP conjugate (50 μL) and cGMP antibody (50 μL) at room temperature for 2 hours, 500 rpm. The plates were washed 4 times and 200 μL of pNPP substrate was added in each well and incubated for 1 hour at room temperature. The reaction was stopped by adding stop solution and absorbance was read at 405 nm and corrected for plate imperfections at 570 nm using SpectramaxM2. Standard curve was generated using the Softmaxpro software and unknown concentrations were extrapolated based on the standard curve. Samples exceeding the standard curve were diluted as needed in 0.1M HCl and corresponding dilution factors were applied to extrapolate final concentrations. The standard curve range is from 0.8 pmol/mL-500 pmol/mL. The % CV at EC50 is 6.6%.

[2] = molecular target: T2, human GC-B (Homo sapiens, UniProt P20594); assay: cGMP generation in HEK293 cells transfected with human GC-B receptor; type: cell-based; conditions: vs vehicle; for cGMP generation: HEK293 cells overexpressing human GC-B, 10^-8, 10^-7, 10^-6 M, 10 minutes
T2 construct: host or cells: HEK293
T2 sequence (P20594 23-1047): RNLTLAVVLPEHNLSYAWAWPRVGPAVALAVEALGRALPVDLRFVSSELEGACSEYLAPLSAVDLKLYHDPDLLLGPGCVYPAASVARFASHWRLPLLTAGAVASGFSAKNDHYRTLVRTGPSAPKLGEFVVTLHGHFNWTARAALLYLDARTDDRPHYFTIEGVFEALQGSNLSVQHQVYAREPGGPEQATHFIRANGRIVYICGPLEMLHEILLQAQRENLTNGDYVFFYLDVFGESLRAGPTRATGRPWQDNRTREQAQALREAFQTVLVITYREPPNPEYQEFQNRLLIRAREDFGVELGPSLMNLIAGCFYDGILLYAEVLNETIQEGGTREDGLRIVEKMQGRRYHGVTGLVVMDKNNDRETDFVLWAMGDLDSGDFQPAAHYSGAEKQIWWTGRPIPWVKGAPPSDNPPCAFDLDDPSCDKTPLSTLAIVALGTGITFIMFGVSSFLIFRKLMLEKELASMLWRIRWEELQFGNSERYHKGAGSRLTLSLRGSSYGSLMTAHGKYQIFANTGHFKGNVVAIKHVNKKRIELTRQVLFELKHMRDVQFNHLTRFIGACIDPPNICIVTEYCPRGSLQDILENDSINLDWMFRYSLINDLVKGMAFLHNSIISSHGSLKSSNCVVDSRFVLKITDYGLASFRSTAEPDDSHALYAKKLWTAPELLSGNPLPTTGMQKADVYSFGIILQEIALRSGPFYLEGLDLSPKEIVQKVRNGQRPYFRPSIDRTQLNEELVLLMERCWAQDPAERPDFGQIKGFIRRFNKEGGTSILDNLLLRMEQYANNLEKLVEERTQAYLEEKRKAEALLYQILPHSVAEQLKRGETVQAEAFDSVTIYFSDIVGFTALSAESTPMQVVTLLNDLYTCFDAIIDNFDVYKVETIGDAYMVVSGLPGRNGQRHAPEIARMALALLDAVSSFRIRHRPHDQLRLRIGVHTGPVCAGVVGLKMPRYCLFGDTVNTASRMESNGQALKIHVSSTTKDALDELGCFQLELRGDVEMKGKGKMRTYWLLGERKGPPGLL
Text: as §1, §2

[3] = system: human renal fibroblasts (HRFs); assay: cGMP generation in human primary renal fibroblasts; type: cell-based; conditions: 10^-8, 10^-7, 10^-6 M, 10 minutes, vs vehicle
Procedure: (§3) cGMP Generation in Human Primary Renal Cells: Human primary renal fibroblasts (HRFs, Cell Biologics, Chicago, IL) and human renal proximal tubular epithelial cells (HRPTCs, ScienCell Research Laboratories, Carlsbad, CA) were maintained and sub-cultured according to the manufacturer's protocols. Briefly, the cells were grown in 6-well plates until 80% confluency and were then treated with treatment buffer (vehicle; HBSS including 0.1% BSA, 2 mM HEPES and 0.5 mM IBMX) alone or with concentrations of CRRL-408 (10^−8, 10^−7 and 10^−6 M) for 10 minutes. Cells were washed with PBS once and lysed with 0.1M HCl. Intracellular cGMP was measured in the lysate using a commercial cGMP ELISA kit (Enzo Life Sciences, Farmingdale, NY) as instructed by the manufacturer described below.
(§4) cGMP Assay: The ELISA plate was coated in neutralizing solution (50 μL), prior to addition of samples and standards. Cell lysates (100 μL) and standards (100 μL), in 0.1M HCL, were incubated with cGMP conjugate (50 μL) and cGMP antibody (50 μL) at room temperature for 2 hours, 500 rpm. The plates were washed 4 times and 200 μL of pNPP substrate was added in each well and incubated for 1 hour at room temperature. The reaction was stopped by adding stop solution and absorbance was read at 405 nm and corrected for plate imperfections at 570 nm using SpectramaxM2. […]

[4] = system: normal rats; assay: Acute IV infusion in vivo study, plasma and urinary cGMP; design: species or system rat; conditions: IV infusion 2.12 μg/kg/min, vs vehicle (saline)
Procedure: Acute IV Infusion In Vivo Study: the cGMP generating actions of 2.12 μg/kg/minute dose CRRL-408 or vehicle (0.9% normal saline) [n=4/group] was investigated in normal rats (approximately 2 months old; 200-250 grams; Envigo, East Millstone, NJ). Studies were performed in accordance with the Animal Welfare Act and with approval of the Mayo Clinic Institutional Animal Care and Use Committee.
Rats were anesthetized with isoflurane (2-3% in oxygen) and were subjected to vessel and bladder cannulation for peptide/vehicle infusion, blood sampling and urine collection. A polyethylene (PE)-50 tube catheter was placed into the jugular vein for CRRL-408/vehicle intravenous (IV) infusion. The carotid artery was cannulated with a PE-50 tube catheter for blood sampling. The bladder was accessed and cannulated with a PE-50 tube catheter for passive urine collection. After completion of the above procedural set up, a 30 minute equilibration period was performed that included continuous IV saline infusion. After the 30 minute equilibration period the saline infusion was replaced by a continuous IV infusion (75 min including a 15 minute lead-in period) of 2.12 μg/kg/minute dose of CRRL-408 or vehicle. The infusion rate was weight adjusted and calculated as follows: rat weight (grams)*0.7/60/100 mL/minute. […]

[5] = system: human renal proximal tubular cells (HRPTCs); assay: cGMP generation in human renal proximal tubular epithelial cells; type: cell-based; conditions: 10^-8, 10^-7, 10^-6 M, 10 minutes, vs vehicle
Procedure: as §3, §4

**Q.** “ANP: natriuretic peptide used as a positive control in HEK293 GC-A cells [reference compound]” was tested. Which “cGMP generation (positive control)” value ([1]; HEK293 GC-A cells, 10^-8 M) did it give?
**A.** significant cGMP generation response

**Q.** With “CNP: C-type natriuretic peptide, used as a positive control in HEK293 GC-B cells [reference compound]” as the substance, how does the “cGMP generation (positive control)” value ([2]; HEK293 GC-B cells, 10^-8 M) read?
**A.** significant cGMP generation response

**Q.** “KGANKKGLSKGCFGLKLDRIGSMSGLGCPSLRDPRPNAPSTSA [CRRL-407]” was tested. Which cGMP generation [1] did it give?
**A.** stimulated cGMP generation

**Q.** What about the cGMP generation [2] of the same substance?
**A.** stimulated cGMP generation

**Q.** How did the “intracellular cGMP levels” value [3] turn out when “KYKGANKKGLSKGCFGLKLDRIGSMSGLGCPSLRDPRPNAPSTSA [CRRL-408]” was run?
**A.** increased intracellular cGMP levels in a dose dependent manner

**Q.** And the cGMP generation [1]?
**A.** stimulated cGMP generation

**Q.** And the cGMP generation [2]?
**A.** stimulated cGMP generation

**Q.** What about the “plasma cGMP” value [4] of the same substance?
**A.** significantly elevated

**Q.** What about the “urinary cGMP” value [4] of the same substance?
**A.** significantly elevated

**Q.** What about the “intracellular cGMP levels” value [5] of the same substance?
**A.** increased intracellular cGMP levels in a dose dependent manner

**Q.** Which results are given for “KKGLSKGCFGLKLDRIGSMSGLGCPSLRDPRPNAPSTSA [CRRL-404]”?
**A.** cGMP generation [1]: stimulated cGMP generation; cGMP generation [2]: stimulated cGMP generation

**Q.** For “GLSKGCFGLKLDRIGSMSGLGCPSLRDPRPNAP STSA [CD-NP, reference compound]”, which cGMP generation [1] is on record?
**A.** stimulated cGMP generation

**Q.** And the cGMP generation [2]?
**A.** stimulated cGMP generation

**Q.** What does the source list for “ANKKGLSKGCFGLKLDRIGSMSGLGCPSLRDPRPNAPSTSA [CRRL-405]”?
**A.** cGMP generation [1]: stimulated cGMP generation; cGMP generation [2]: stimulated cGMP generation

From US12661388B2, “Assessing and treating acute decompensated heart failure” (Mayo Foundation for Medical Education and Research, priority 2020, dated 2026)
